# Read-outs that look alike come from different tables or passages of the source.
# Experiments:
# [1] = cited from earlier work
# [2] = after 10 week supplementation; cited from earlier work
Molecule,"paraesthesia symptoms ([1]; 10 mg per kg body weight, some individuals)","paraesthesia symptoms ([1]; 20 mg per kg bodyweight, majority of individuals)",paraesthesia symptoms ([1]; 40 mg per kg body weight),ingested amount that causes paraesthesia ([1]; in solution or as powder in gelatin capsules),duration of paraesthesia ([1]; oral),time to beginning of paraesthesia after oral administration ([1]; oral),"increase in intramuscular carnosine content, average [2]","additional β-alanine administrable before symptoms of paraesthesia, compared with β-alanine alone (human subjects, oral)","single oral dose administered before the onset of paraesthesia was noted (human subjects, oral, gelatin capsules, single dose)",equivalent β-alanine dose before onset of paraesthesia (salt mass is about 40.45% β-alanine)
"NCCC(=O)O [β-alanine, 3-Aminopropanoic acid]",mild symptoms,significant symptoms,severe symptoms,above 10 mg per kg body weight,up to 1 hour,about 20 minutes,80.1%,–,–,–
creatine β-alaninate,–,–,–,–,–,–,–,roughly 100%,up to 55.00 mg/kg,about 22.25 mg/kg
